Measurements: patent publication US5286729A, “Angiotensin II receptor blocking 2,3,6 substituted quinazolinones” (American Cyanamid Company, priority 1993, dated 1994)
Several values for one entry are separate records, joined by “and”; a condition that tells them apart may be missing. Identical values can stand only once.

System: ANGIOTENSIN II (AII) VASOPRESSOR RESPONSE
Test: AII Challenge: % inhibition (angiotensin blockage) of angiotensin II vasopressor response in conscious SHR
Format: in vivo, rat (Male Okamoto-Aoki SHR)
Conditions: for Response After AII / Change / Control Before AII: individual rats
Description: By administering a compound of this invention to a rat, and then challenging with angiotensin II, a blockage of the vasopressor response is realized. The results of this test on representative compounds of this invention are shown in Table V. Conscious Male Okamoto-Aoki SHR, 16-20 weeks old, weighing approximately 330 g are purchased from Charles River Labs (Wilmington, MA). Conscious rats are restrained in a supine position with elastic tape. The area at the base of the tail is locally anesthetized by subcutaneous infiltration with 2% procaine. The central caudal artery and vein are isolated, and a cannula made of polyethylene (PE) 10-20 tubing (fused together by heat) is passed into the lower abdominal aorta and vena cava, respectively. The cannula is secured, heparinized (1,000 I.U./ml), sealed and the wound is closed. The animals are placed in plastic restraining cages in an upright position. The cannula is attached to a Statham P23Db pressure transducer, and pulsatile blood pressure is recorded to 10-15 minutes with a Gould Brush recorder. (Chan et al., (Drug Development Res., 18:75-94, 1989). Angiotensin II (human sequence, Sigma Chem. Co., St. Louis, MO) of 0.05 and 0.1 ug/kg i.v. is injected into all rats (predosing repsonse). Then a test compound, vehicle or a known angiotensin II antagonist is administered i.v., i.p. or orally to each set of rats. The two doses of angiotensin II are given to each rat again at 30, 60, 90, 120, 180, 240 and 300 minutes post dosing the compound or vehicle. The vasopressor response of angiotensin II is measured for the increase in systolic blood pressure in mmHg. The percentage of antagonism or blockade of the vasopressor response of angiotensin II by a compound is calculated using the vasopressor response (increase in systolic blood pressure) of angiotensin II of each rat predosing the compound as 100%. A compound is considered active if at 30 mg/kg i.v. it antagonized at least 50% of the response.

[1] = 5 mg/kg IV, AII 0.05 mcg/kg IV, 30 min post dose
[2] = 5 mg/kg IV, AII 0.05 mcg/kg IV, 30 min post dose, monohydrochloride
[3] = 5 mg/kg IV, AII 0.05 mcg/kg IV, 60 min post dose
[4] = 5 mg/kg IV, AII 0.05 mcg/kg IV, 60 min post dose, monohydrochloride
[5] = 5 mg/kg IV, AII 0.05 mcg/kg IV, 90 min post dose
[6] = 5 mg/kg IV, AII 0.05 mcg/kg IV, 90 min post dose, monohydrochloride
[7] = 5 mg/kg IV, AII 0.05 mcg/kg IV, 120 min post dose
[8] = 5 mg/kg IV, AII 0.05 mcg/kg IV, 120 min post dose, monohydrochloride
[9] = 5 mg/kg IV, AII 0.05 mcg/kg IV, 180 min post dose
[10] = 5 mg/kg IV, AII 0.05 mcg/kg IV, 180 min post dose, monohydrochloride
[11] = 5 mg/kg IV, AII 0.1 mcg/kg IV, 30 min post dose
[12] = 5 mg/kg IV, AII 0.1 mcg/kg IV, 30 min post dose, monohydrochloride
[13] = 5 mg/kg IV, AII 0.1 mcg/kg IV, 60 min post dose
[14] = 5 mg/kg IV, AII 0.1 mcg/kg IV, 60 min post dose, monohydrochloride
[15] = 5 mg/kg IV, AII 0.1 mcg/kg IV, 90 min post dose
[16] = 5 mg/kg IV, AII 0.1 mcg/kg IV, 90 min post dose, monohydrochloride
[17] = 5 mg/kg IV, AII 0.1 mcg/kg IV, 120 min post dose
[18] = 5 mg/kg IV, AII 0.1 mcg/kg IV, 120 min post dose, monohydrochloride
[19] = 5 mg/kg IV, AII 0.1 mcg/kg IV, 180 min post dose
[20] = 5 mg/kg IV, AII 0.1 mcg/kg IV, 180 min post dose, monohydrochloride
[21] = 10 mg/kg P.O., AII 0.05 mcg/kg IV, 30 min post dose
[22] = 10 mg/kg P.O., AII 0.05 mcg/kg IV, 30 min post dose, monohydrochloride
[23] = 10 mg/kg P.O., AII 0.05 mcg/kg IV, 60 min post dose
[24] = 10 mg/kg P.O., AII 0.05 mcg/kg IV, 60 min post dose, monohydrochloride
[25] = 10 mg/kg P.O., AII 0.05 mcg/kg IV, 90 min post dose
[26] = 10 mg/kg P.O., AII 0.05 mcg/kg IV, 90 min post dose, monohydrochloride
[27] = 10 mg/kg P.O., AII 0.05 mcg/kg IV, 120 min post dose
[28] = 10 mg/kg P.O., AII 0.05 mcg/kg IV, 120 min post dose, monohydrochloride
[29] = 10 mg/kg P.O., AII 0.05 mcg/kg IV, 180 min post dose
[30] = 10 mg/kg P.O., AII 0.05 mcg/kg IV, 180 min post dose, monohydrochloride
[31] = 10 mg/kg P.O., AII 0.1 mcg/kg IV, 30 min post dose
[32] = 10 mg/kg P.O., AII 0.1 mcg/kg IV, 30 min post dose, monohydrochloride
[33] = 10 mg/kg P.O., AII 0.1 mcg/kg IV, 60 min post dose
[34] = 10 mg/kg P.O., AII 0.1 mcg/kg IV, 90 min post dose
[35] = 10 mg/kg P.O., AII 0.1 mcg/kg IV, 120 min post dose
[36] = 10 mg/kg P.O., AII 0.1 mcg/kg IV, 120 min post dose, monohydrochloride
[37] = 10 mg/kg P.O., AII 0.1 mcg/kg IV, 180 min post dose
[38] = 10 mg/kg P.O., AII 0.1 mcg/kg IV, 180 min post dose, monohydrochloride

Structure (SMILES): CCCCc1nc2ccc(COc3ccccn3)cc2c(=O)n1Cc1ccc(-c2ccccc2-c2nnn[nH]2)cc1.Cl [Example 12, 2-Butyl-6-[(2-pyridinyloxy)methyl]-3-[[2'-(1H-tetrazol-5-yl)[1,1'-biphenyl]-4-yl]methyl]-4(3H)-quinazolinone monohydrochloride]
- % Inhibition [1]: 62%
- Average Change [1]: 12.5 mmHg
- Response After AII [1]: 195 mmHg
- Change [2]: 10 mmHg and 15 mmHg
- Control Before AII [2]: 185 mmHg and 180 mmHg
- % Inhibition [3]: 92%
- Average Change [3]: 2.5 mmHg
- Control Before AII [3]: 175 mmHg
- Response After AII [3]: 180 mmHg
- Change [4]: 0 mmHg and 5 mmHg
- Response After AII [4]: 175 mmHg
- % Inhibition [5]: 69%
- Average Change [5]: 10 mmHg
- Change [5]: 10 mmHg
- Response After AII [5]: 170 mmHg
- Control Before AII [6]: 160 mmHg and 165 mmHg
- Response After AII [6]: 175 mmHg
- % Inhibition [7]: 77%
- Average Change [7]: 7.5 mmHg
- Control Before AII [7]: 165 mmHg
- Response After AII [7]: 170 mmHg
- Change [8]: 10 mmHg and 5 mmHg
- Response After AII [8]: 175 mmHg
- % Inhibition [9]: 66%
- Average Change [9]: 11 mmHg
- Change [10]: 7 mmHg and 15 mmHg
- Control Before AII [10]: 165 mmHg and 155 mmHg
- Response After AII [10]: 172 mmHg and 170 mmHg
- % Inhibition [11]: 65%
- Average Change [11]: 15 mmHg
- Control Before AII [11]: 185 mmHg
- Response After AII [11]: 195 mmHg
- Change [12]: 10 mmHg and 20 mmHg
- Control Before AII [12]: 175 mmHg
- % Inhibition [13]: 71%
- Average Change [13]: 12.5 mmHg
- Response After AII [13]: 185 mmHg
- Change [14]: 15 mmHg and 10 mmHg
- Control Before AII [14]: 170 mmHg and 175 mmHg
- % Inhibition [15]: 76%
- Average Change [15]: 10 mmHg
- Change [15]: 10 mmHg
- Control Before AII [16]: 160 mmHg and 170 mmHg
- Response After AII [16]: 170 mmHg and 180 mmHg
- % Inhibition [17]: 65%
- Average Change [17]: 15 mmHg
- Control Before AII [17]: 165 mmHg
- Change [18]: 20 mmHg and 10 mmHg
- Response After AII [18]: 185 mmHg and 175 mmHg
- % Inhibition [19]: 51%
- Average Change [19]: 21 mmHg
- Control Before AII [19]: 160 mmHg
- Change [20]: 20 mmHg and 22 mmHg
- Response After AII [20]: 180 mmHg and 182 mmHg
- % Inhibition [21]: 56%
- Average Change [21]: 17.5 mmHg
- Control Before AII [21]: 185 mmHg
- Response After AII [21]: 210 mmHg
- Change [22]: 25 mmHg and 10 mmHg
- Control Before AII [22]: 200 mmHg
- % Inhibition [23]: 44%
- Average Change [23]: 22.5 mmHg
- Control Before AII [23]: 185 mmHg
- Response After AII [23]: 220 mmHg
- Change [24]: 25 mmHg and 20 mmHg
- Control Before AII [24]: 195 mmHg
- Response After AII [24]: 205 mmHg
- % Inhibition [25]: 59%
- Average Change [25]: 16.5 mmHg
- Control Before AII [25]: 195 mmHg
- Change [26]: 30 mmHg and 3 mmHg
- Control Before AII [26]: 190 mmHg
- Response After AII [26]: 220 mmHg and 198 mmHg
- % Inhibition [27]: 69%
- Average Change [27]: 12.5 mmHg
- Control Before AII [27]: 210 mmHg
- Response After AII [27]: 230 mmHg
- Change [28]: 20 mmHg and 5 mmHg
- Response After AII [28]: 215 mmHg
- % Inhibition [29]: 50%
- Average Change [29]: 20 mmHg
- Control Before AII [29]: 185 mmHg
- Change [30]: 25 mmHg and 15 mmHg
- Response After AII [30]: 210 mmHg and 200 mmHg
- % Inhibition [31]: 34%
- Average Change [31]: 27.5 mmHg
- Response After AII [31]: 220 mmHg
- Change [32]: 35 mmHg and 20 mmHg
- Control Before AII [32]: 185 mmHg and 200 mmHg
- % Inhibition [33]: 16%
- Average Change [33]: 35 mmHg
- Change [33]: 35 mmHg
- Control Before AII [33]: 185 mmHg
- Response After AII [33]: 220 mmHg
- % Inhibition [34]: 28%
- Average Change [34]: 30 mmHg
- Change [34]: 30 mmHg
- Control Before AII [34]: 190 mmHg
- Response After AII [34]: 220 mmHg
- % Inhibition [35]: 52%
- Average Change [35]: 20 mmHg
- Control Before AII [35]: 205 mmHg
- Response After AII [35]: 235 mmHg
- Change [36]: 30 mmHg and 10 mmHg
- Response After AII [36]: 215 mmHg
- % Inhibition [37]: 40%
- Average Change [37]: 25 mmHg
- Response After AII [37]: 210 mmHg
- Change [38]: 35 mmHg and 15 mmHg
- Control Before AII [38]: 190 mmHg and 195 mmHg
- Response After AII [38]: 225 mmHg
